Laboratory results taken from US7585839B2, “Medical uses of intercellular communication facilitating compounds” (Zealand Pharma A/S, priority 2001, dated 2009).

Columns and labels:
ROS 17/2.8 cells = experiment: Intercellular calcium waves after mechanical stimulation, ROS 17/2.8 cells; type: cell-based, rat; conditions: 48 hours hypoxia 3-6% O2; 10^−8 M, 10 minutes; 2.2 cells before
Procedure: ROS 17/2.8 cells: Cells were cultured in 100 mm dishes at 37° C. with 5% CO2 and medium change every 2-3 days. ROS medium (all reagents obtained from Life Technologies): MEM (Cat.No. 31095) supplemented with 10% heat-inactivated calf serum (Cat.No. 16170), 1% NEAA (Cat.No. 11140), 1% Sodium Pyruvate (Cat.No. 11360), 1% L-Glutamine (Cat.No. 25030) and 0.1% Penicillin/Streptomycin (Cat,No. 15140). For video imaging experiments, cells were plated on coverslips at 2-3×10^5 cells/coverslip and cultured for 2-3 days before use.
The cells cultured on coverslips were loaded with 5 μM fura-2-AM (Molecular Probes, Cat.No. F-1221), for 30 minutes at 37° C., and incubated in fresh medium for 20 minutes. Coverslips were then affixed to a PDMI-2 culture chamber (Medical Systems Corp.), maintained at 37° C. with superfused CO2, on a Zeiss Axiovert microscope. Intercellular calcium waves were induced by mechanical stimulation of a single cell using a borosilicate glass micro pipette affixed to an Eppendorf 5171 micromanipulator. Imaging was performed using a MetaMorph imaging system (Universal Imaging). The excitation light (340 and 380 nm) was provided by a monochromator (T.I.L.L. Photonics GmbH). Images were acquired with an intensified CCD camera (Dage MTI) and digitized with a Matrox MVP image processing board.

human osteoblast [1] = conditions: human osteoblast cultures and rat osteosarcoma cell lines; conference abstract; cited from earlier work
[2] = system: alkaline phosphatase (ALP) activity of human osteoblasts; experiment: Alkaline phosphatase assay, human osteoblasts; type: cell-based
Procedure: Day 1: Cells were plated in 96-well plates at a conc. of 8000 cells/well (hOB) or 3000 cells/well (ROS) in 200 μl normal culture medium.
Day 2: Medium was changed on the cells.
Day 4: (Day 3 for ROS): Cells were washed with 200 μl MEM, 0.1% BSA (Sigma, Cat.No. A-9418).
Day 8: (Day 5 for ROS): Alkaline Phosphatase (ALP) assay is a colorimetric endpoint method for measuring enzyme activity, and was done using Alkaline Phosphatase Kit (Sigma, Cat.No. 104-LL): Cells were washed once with 200 μl PBS+Ca,Mg. 100μl Alkaline Buffer Solution was added to each well and plate was placed at 37° C. for 10 min. 100 μl Substrate Solution was added to each well and plate was incubated at 37° C. for 30 min. 100 μl 2.0 N NaOH was added to each well to stop the reaction. Absorbance was measured using a plate reader at 405 nm.

human osteoblast [3] = experiment: Lucifer Yellow microinjection dye transfer, human osteoblasts; type: cell-based; conditions: 48 hours hypoxia 3-6% O2; 10 minutes incubation; 7 cells before
Procedure: Human osteblast cells (hOB): Cells were isolated from human bone marrow obtained by puncture of the posterior iliac spine of healthy volunteers (aged 20-36): 10-15 ml marrow material was collected in 15 ml PBS+Ca,Mg (Life Technologies, Cat.No. 14040) with 100 U/ml Heparin (Sigma, Cat.No. H-3149). The mononuclear fraction of the marrow was isolated on a Lymphoprep gradient (Nycomed Pharma, Cat.No. 1001967), by centrifugation at 2200 rpm for 30 min. After harvesting, the mononuclear fraction was washed once with culture medium and centrifuged at 1800 rpm for 10 min. Subsequently cells were counted and plated in culture medium at 8×10^6 cells/100 mm dish. hOB medium (all reagents obtained from Life Technologies): MEM w/o Phenol Red w/Glutamax (Cat.No. 041-93013) supplemented with 10% heat inactivated fetal calf serum (Cat.No. 10106) and 0.1% Penicillin/Streptomycin (Cat.No. 15140). Medium was changed the following day and the cells were cultured at 37° C. in 5% CO2 with medium change every 7 days. After 3-4 weeks of culture the cells had reached 70% confluence. The medium was then supplemented with 100 nM Dexamethasone (Sigma, Cat.No. D-4902) for 7 days. Cells were then plated for video imaging experiments: a 25 mm #1 glass coverslip was placed in a 35 mm dish (or each well of a 6-well multidish), cells were plated at 2.5×10^5 cells/coverslip and cultured for 2-3 days before use. […]

[4] = system: calcium-induced arrythmias; experiment: Calcium-induced arrhythmia model in mice (CaCl2-induced 2nd degree AV-block); type: in vivo; conditions: mouse, in vivo
Procedure: The antiarrhythmic effects of compounds of this invention were tested in an in vivo model of calcium-induced arrythmias according to the model of Lynch et al.^[37]. […]. Commercial solutions of hypnorm and midazolam were diluted 1:1 in distilled water and one part diluted Hypnorm® is mixed with one part diluted midazolam.
The anaesthesia was induced by s.c. administration in a dose of 0.05-0.075 μl/10 gram mouse. An i.v. cannula was inserted into the tail vein. The lead II ECG signal was recorded continuously by positioning of a stainless steel ECG electrodes on the right forelimb and on the left hind limb. The ground electrode was placed on the right hind limb. The signal was amplified (×5.000-10.000) and filtered (0.1-150 Hz) via a Hugo Sachs Electronic model 689 ECG module. The analogue signal was digitised via a 12 bit data acquisition board (Data Translation model DT321) and sampled at 1000 Hz using the Notocord HEM 3.1 software for Windows NT. After a 10-min equilibration period, the test sample of drug was injected into the tail vein. Mice pre-treated with vehicle were tested as a measure of the control level in untreated animals. The injection volume was 100 μl in all experiments. Infusion of CaCl2 (30 mg/ml, 0.1 ml/min≈100 mg/kg/min (calciumchlorid-2-hydrat, Riedel-de Haën, Germany)) was started 3 min after i.v. administration of drug or vehicle.
The time lag to onset of 2nd degree AV-block was determined as the time from the start of CaCl2 infusion until the first arrhythmic event occured. An event of 2nd degree AV-block was defined as intermittent failure of the AV conduction characterised by a P-wave without the concomitant QRS complex.
Responses were expressed relative to the time until 2nd degree AV-block occurred in vehicle treated mice.

[5] = system: phosphoinositol turnover in neonatal rat cardiomyocytes; conditions: conference abstract, cited from earlier work

Substance: Ac-D-Tyr-D-Pro-D-4Hyp-Gly-D-Ala-Gly-NH2 [Compound 2]
- average number of cells in the calcium wave (ROS 17/2.8 cells): 5.4 cells
- hypoxia-induced decrease of intercellular communication (human osteoblast [1]): completely reversed
- stimulation of ALP activity during hypoxia, greater than during normoxia ([2]; 5% O2 four days, 10^−11 to 10^−8 mol/l): about 15%
- ALP activity ([2]; normal culture conditions, 1×10^−13 to 1×10^−6): increased ALP activity at most of the concentrations tested
- dye transfer, number of cells (human osteoblast [3]): 9 cells
- CaCl2 mice In vivo, % [4]: 65 +/− 7%
- noradrenalin-induced level of PI turnover ([5]; normal athmospheric and nutritional conditions): do not alter
- noradrenalin-induced PI turnover, % of the normal level ([5]; oxygen and glucose deprivation): ~90%
